Bounds are passed on as bounds.

This is an account of results in patent US9902703B2, “Somatostatin modulators and uses thereof” (Crinetics Pharmaceuticals, Inc., priority 2015, dated 2018).

The target in the assay is T1, human somatostatin receptor subtype 2 (Homo sapiens, UniProt P30874).
T1 construct: expressed in transfected cells; host or cells: CHO (Chinese hamster ovary) cells, G-418 selected
T1 sequence (P30874 whole entry): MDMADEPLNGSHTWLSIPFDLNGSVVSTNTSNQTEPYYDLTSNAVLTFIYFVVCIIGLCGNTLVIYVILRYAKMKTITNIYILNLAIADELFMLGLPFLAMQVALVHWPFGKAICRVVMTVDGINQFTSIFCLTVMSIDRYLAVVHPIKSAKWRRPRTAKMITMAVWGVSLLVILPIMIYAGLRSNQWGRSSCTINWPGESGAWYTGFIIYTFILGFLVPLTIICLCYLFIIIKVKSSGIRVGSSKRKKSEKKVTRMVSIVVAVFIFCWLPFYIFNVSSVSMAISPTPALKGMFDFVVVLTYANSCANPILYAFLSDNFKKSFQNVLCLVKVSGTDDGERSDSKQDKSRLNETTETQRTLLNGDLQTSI
The assay can be described thus: cAMP assay (functional assay for SSTR2 agonists). In kind it is cell-based. Particulars: CHO cells expressing human SSTR2; intracellular cAMP with forskolin, HTRF; read-out: SSTR2a EC50. The source says:
Functional Assay for SSTR2 Agonists
General overview: All five SSTR subtypes are Gi coupled G-protein coupled receptors (GPCRs) that lead to decreases in intracellular cyclic AMP (cAMP) when activated by an agonist. Therefore, measurement of intracellular cAMP levels can be used to assess whether compounds of the invention are agonists of SSTR subtypes (John Kelly, Troy Stevens, W. Joseph Thompson, and Roland Seifert, Current Protocols in Pharmacology, 2005, 2.2.1-2.2). One example of an intracellular cAMP assay is described below.
One day prior to the assay, 40,000 Chinese hamster ovary (CHO) cells expressing the human somatostatin receptor subtype 2 are plated in each well of a 96-well tissue culture plate in DM-MEM growth media (Gibco) with the following additives: 10% fetal bovine serum (Gibco), 100 U/mL penicillin (Gibco), 100 ug/mL streptomycin (Gibco), 10 mM HEPES (Gibco), 1.2 mM sodium hydroxide, 0.5 mg/mL G-418 (Gibco)). The cells are cultured overnight at 37° C., 5% CO2 and 95% humidity. On the day of the assay, the media is aspirated and the cells are washed with 1× Dulbecco's phosphate buffered saline (Gibco). Next, 5 μL of assay buffer (1× Earle's Balanced Salt Solution (Gibco), 5 mM MgCl2, 10 mM HEPES, 0.1% bovine serum albumin, 0.2 mM 3-Isobutyl-1-methylxanthine (IBMX, Biomol Research Labs)) and forskolin is added. Various dilutions of the compounds of the invention are prepared in assay buffer and 5 μL of the dilutions are added to the cultured cells and incubated for 15 minutes at 37° C. […] 10 μL of lysis buffer (HRTF cAMP kit, Cisbio) containing cAMP detection and visualization antibodies are added and the assay is allowed incubate for 1-24 hours at room temperature. The intracellular cAMP concentrations are then measured using a commercially available detection kit (for example, the cAMP HTRF kit, Cisbio). The measured intracellular cAMP concentrations are plotted vs. the concentration of the compounds of the invention and the EC50 of the compounds are calculated using standard methods.
(cAMP levels reflect the balance of adenylyl cyclase and phosphodiesterase activity.)
Usually EC50 stands for the concentration that produces a half-maximal response. For `Cc1cc(Cl)cc(N2C=Nc3ccc(-c4cccc(O)c4Cl)cc3C2C(=O)N(C)C[C@@H]2CCCN2)c1` (stereo partly drawn) [Compound 1-29, 6-(2-chloro-3-hydroxyphenyl)-3-(3-chloro-5-methylphenyl)-N-methyl-N-[(2S)-pyrrolidin-2-ylmethyl]-3,4-dihydroquinazoline-4-carboxamide], the EC50 is below 100 nM.
In the case of `Cc1cc(C)cc(N2C=Nc3cc(C)c(-c4cccc(O)c4)cc3C2C(=O)N(C)C[C@@H]2CCCN2)c1` (stereo partly drawn) [Compound 1-12, 3-(3,5-dimethylphenyl)-6-(3-hydroxyphenyl)-N,7-dimethyl-N-[(2S)-pyrrolidin-2-ylmethyl]-3,4-dihydroquinazoline-4-carboxamide] it was below 100 nM; in that of `Cc1cc(Cl)cc(N2C=Nc3cc(C)c(-c4cc(C#N)ccc4Cl)cc3C2C(=O)N(C)C[C@@H]2CCCN2)c1` (stereo partly drawn) [Compound 1-37, 6-(2-chloro-5-cyanophenyl)-3-(3-chloro-5-methylphenyl)-N,7-dimethyl-N-[(2S)-pyrrolidin-2-ylmethyl]-3,4-dihydroquinazoline-4-carboxamide], below 100 nM.
With `Cc1cc(Cl)cc(N2C=Nc3cc(C)c(-c4cc(F)cc(F)c4)cc3C2C(=O)N(C)C[C@@H]2CCCN2)c1` (stereo partly drawn) [Compound 1-40, 3-(3-chloro-5-methylphenyl)-6-(3,5-difluorophenyl)-N,7-dimethyl-N-[(2S)-pyrrolidin-2-ylmethyl]-3,4-dihydroquinazoline-4-carboxamide], the EC50 is below 100 nM.
The figure for `Cc1cc(F)cc(N2C=Nc3cc(C)c(-c4cc(O)ccc4Cl)cc3C2C(=O)N(C)C[C@@H]2CCCN2)c1` (stereo partly drawn) [Compound 1-26, 6-(2-chloro-5-hydroxyphenyl)-3-(3-fluoro-5-methylphenyl)-N,7-dimethyl-N-[(2S)-pyrrolidin-2-ylmethyl]-3,4-dihydroquinazoline-4-carboxamide] is below 100 nM; for `Cc1cc(Cl)cc(N2C=Nc3cc(C)c(-c4cc(O)ccc4C#N)cc3C2C(=O)N(C)C[C@@H]2CCCN2)c1` (stereo partly drawn) [Compound 1-21, 3-(3-chloro-5-methylphenyl)-6-(2-cyano-5-hydroxyphenyl)-N,7-dimethyl-N-[(2S)-pyrrolidin-2-ylmethyl]-3,4-dihydroquinazoline-4-carboxamide] it is below 100 nM; for `Cc1cc(Cl)cc(N2C=Nc3cc(C)c(-c4cc(C#N)cc(C(F)(F)F)c4)cc3C2C(=O)N(C)C[C@@H]2CCCN2)c1` (stereo partly drawn) [Compound 1-42, 3-(3-chloro-5-methylphenyl)-6-[3-cyano-5-(trifluoromethyl)phenyl]-N,7-dimethyl-N-[(2S)-pyrrolidin-2-ylmethyl]-3,4-dihydroquinazoline-4-carboxamide] it is below 100 nM.
For `Cc1cc(Cl)cc(N2C=Nc3cc(C)c(-c4cccc(O)c4)cc3C2C(=O)N(C)C[C@H]2CCCN2)c1` (stereo partly drawn) [Compound 1-18, 3-(3-chloro-5-methylphenyl)-6-(3-hydroxyphenyl)-N,7-dimethyl-N-[(2R)-pyrrolidin-2-ylmethyl]-3,4-dihydroquinazoline-4-carboxamide], the EC50 is below 100 nM.
In the case of `Cc1cc(Cl)cc(N2C=Nc3cc(C)c(-c4c(C)cccc4F)cc3C2C(=O)N(C)C[C@@H]2CCCN2)c1` (stereo partly drawn) [Compound 2-12, 3-(3-chloro-5-methylphenyl)-6-(2-fluoro-6-methylphenyl)-N,7-dimethyl-N-[(2S)-pyrrolidin-2-ylmethyl]-3,4-dihydroquinazoline-4-carboxamide] it was below 100 nM; in that of `Cc1cc(Cl)cc(N2C=Nc3cc(C)c(-c4cc(F)ccc4C)cc3C2C(=O)N(C)C[C@@H]2CCCN2)c1` (stereo partly drawn) [Compound 2-13, 3-(3-chloro-5-methylphenyl)-6-(5-fluoro-2-methylphenyl)-N,7-dimethyl-N-[(2S)-pyrrolidin-2-ylmethyl]-3,4-dihydroquinazoline-4-carboxamide], below 100 nM.
In the case of `Cc1cc(Cl)cc(N2C=Nc3cc(C)c(-c4cc(O)ccc4Cl)cc3C2C(=O)N(C)C[C@@H]2CCCCN2)c1` (stereo partly drawn) [Compound 1-23, 6-(2-chloro-5-hydroxyphenyl)-3-(3-chloro-5-methylphenyl)-N,7-dimethyl-N-[(2S)-piperidin-2-ylmethyl]-3,4-dihydroquinazoline-4-carboxamide], the EC50 was below 100 nM.
In the case of `Cc1cc(Cl)cc(N2C=Nc3cc(C)c(-c4cccc(C#N)c4F)cc3C2C(=O)N(C)C[C@@H]2CCCN2)c1` (stereo partly drawn) [Compound 1-41, 3-(3-chloro-5-methylphenyl)-6-(3-cyano-2-fluorophenyl)-N,7-dimethyl-N-[(2S)-pyrrolidin-2-ylmethyl]-3,4-dihydroquinazoline-4-carboxamide] it was below 100 nM; in that of `Cc1cc(Cl)cc(N2C=Nc3cc(C)c(-c4cccc(F)c4C)cc3C2C(=O)N(C)C[C@@H]2CCCN2)c1` (stereo partly drawn) [Compound 2-7, 3-(3-chloro-5-methylphenyl)-6-(3-fluoro-2-methylphenyl)-N,7-dimethyl-N-[(2S)-pyrrolidin-2-ylmethyl]-3,4-dihydroquinazoline-4-carboxamide], below 100 nM.
With `Cc1cc(Cl)cc(N2C=Nc3cc(C)c(-c4ccc5[nH]c(=O)[nH]c5c4)cc3C2C(=O)N(C)C[C@@H]2CCCN2)c1` (stereo partly drawn) [Compound 2-34, 3-(3-chloro-5-methylphenyl)-N,7-dimethyl-6-(2-oxo-2,3-dihydro-1H-1,3-benzodiazol-5-yl)-N-[(2S)-pyrrolidin-2-ylmethyl]-3,4-dihydroquinazoline-4-carboxamide], the EC50 was below 100 nM.
In the case of `CC[C@H](N)CN(C)C(=O)C1c2cc(-c3cc(O)ccc3Cl)c(C)cc2N=CN1c1cc(C)cc(C)c1` (stereo partly drawn) [Compound 1-16, N-[(2S)-2-aminobutyl]-6-(2-chloro-5-hydroxyphenyl)-3-(3,5-dimethylphenyl)-N,7-dimethyl-3,4-dihydroquinazoline-4-carboxamide] it was below 100 nM; in that of `Cc1cc(Cl)cc(N2C=Nc3cc(C)c(-c4ccnc(C#N)c4)cc3C2C(=O)N(C)C[C@@H]2CCCN2)c1` (stereo partly drawn) [Compound 2-27, 3-(3-chloro-5-methylphenyl)-6-(2-cyanopyridin-4-yl)-N,7-dimethyl-N-[(2S)-pyrrolidin-2-ylmethyl]-3,4-dihydroquinazoline-4-carboxamide], 100 to 1000 nM; in that of `Cc1cc(Cl)cc(N2C=Nc3cc(C)c(-c4cccc(O)c4)cc3C2C(=O)N(C)C[C@@H]2C[C@@H](F)CN2)c1` (stereo partly drawn) [Compound 1-56, 3-(3-chloro-5-methylphenyl)-N-{[(2S,4R)-4-fluoropyrrolidin-2-yl]methyl}-6-(3-hydroxyphenyl)-N,7-dimethyl-3,4-dihydroquinazoline-4-carboxamide], below 100 nM.
The figure for `Cc1cc(Cl)cc(N2C=Nc3cc(C)c(-c4cc(F)ccc4O)cc3C2C(=O)N(C)C[C@@H]2CCCN2)c1` (single isomer, unassigned) [Compound 3-2] is below 100 nM; for `Cc1cc(Cl)cc(N2C=Nc3cc(C)c(-c4cccc(O)c4)cc3C2C(=O)N(C)C[C@@H]2CCCN2)c1` (stereo partly drawn) [Compound 1-17, 3-(3-chloro-5-methylphenyl)-6-(3-hydroxyphenyl)-N,7-dimethyl-N-[(2S)-pyrrolidin-2-ylmethyl]-3,4-dihydroquinazoline-4-carboxamide] it is below 100 nM; for `COc1c(C#N)cccc1-c1cc2c(cc1C)N=CN(c1cc(C)cc(Cl)c1)C2C(=O)N(C)C[C@@H]1CCCN1` (stereo partly drawn) [Compound 2-28, 3-(3-chloro-5-methylphenyl)-6-(3-cyano-2-methoxyphenyl)-N,7-dimethyl-N-[(2S)-pyrrolidin-2-ylmethyl]-3,4-dihydroquinazoline-4-carboxamide] it is below 100 nM.
For the compound `Cc1cc(Cl)cc(N2C=Nc3cc(C)c(-c4cc(O)cc(F)c4)cc3C2C(=O)N(C)C[C@@H]2CCCN2)c1` (stereo partly drawn) [Compound 2-21, 3-(3-chloro-5-methylphenyl)-6-(3-fluoro-5-hydroxyphenyl)-N,7-dimethyl-N-[(2S)-pyrrolidin-2-ylmethyl]-3,4-dihydroquinazoline-4-carboxamide], the EC50 was below 100 nM.
The figure for `Cc1cc(Cl)cc(N2C=Nc3cc(C)c(-c4cncc(C#N)c4)cc3C2C(=O)N(C)C[C@@H]2CCCN2)c1` (stereo partly drawn) [Compound 2-18, 3-(3-chloro-5-methylphenyl)-6-(5-cyanopyridin-3-yl)-N,7-dimethyl-N-[(2S)-pyrrolidin-2-ylmethyl]-3,4-dihydroquinazoline-4-carboxamide] is below 100 nM; for `Cc1cc(Cl)cc(N2C=Nc3cc(C)c(-c4ccccc4Cl)cc3C2C(=O)N(C)C[C@@H]2CCCN2)c1` (stereo partly drawn) [Compound 1-36, 3-(3-chloro-5-methylphenyl)-6-(2-chlorophenyl)-N,7-dimethyl-N-[(2S)-pyrrolidin-2-ylmethyl]-3,4-dihydroquinazoline-4-carboxamide] it is below 100 nM.
